# Data published in patent US20080199484A1, “Use Of Cox-2 Inhibitor to Prevent T-Cell Anergy Induced By Dendritic Cell Therapy” (CEDARS-SINAI MEDICAL CENTER, priority 2003, published 2008).
# B1: TRAIL: TNF-related apoptosis inducing ligand, obtained from PeproTech, used at 300 ng/ml (protein, UniProt P50591 1-281, looked up)
# Tumor necrosis factor ligand …: MAMMEVQGGPSLGQTCVLIVIFTVLLQSLCVAVTYVYFTNELKQMQDKYSKSGIACFLKEDDSYWDPNDEESMNSPCWQVKWQLRQLVRKMILRTSEETISTVQEKQQNISPLVRERGPQRVAAHITGTRGRSNTLSSPNSKNEKALGRKINSWESSRSGHSFLSNLHLRNGELVIHEKGFYYIYSQTYFRFQEEIKENTKNDKQMVQYIYKYTSYPDPILLMKSARNSCWSKDAEYGLYSIYQGGIFELKENDRIFVSVTNEHLIDMDHEASFFGAFLVG
# B2: recombinant IL-12: recombinant IL-12 supplementing DC-based glioma immunotherapy (Akasaki et al.) (protein, UniProt P43431 23-215; P43432 23-335, looked up)
# Interleukin-12 subunit alpha: RVIPVSGPARCLSQSRNLLKTTDDMVKTAREKLKHYSCTAEDIDHEDITRDQTSTLKTCLPLELHKNESCLATRETSSTTRGSCLPPQKTSLMMTLCLGSIYEDLKMYQTEFQAINAALQNHNHQQIILDKGMLVAIDELMQSLNHNGETLRQKPPVGEADPYRVKMKLCILLHAFSTRVVTINRVMGYLSSA
# Interleukin-12 subunit beta: MWELEKDVYVVEVDWTPDAPGETVNLTCDTPEEDDITWTSDQRHGVIGSGKTLTITVKEFLDAGQYTCHKGGETLSHSHLLLHKKENGIWSTEILKNFKNKTFLKCEAPNYSGRFTCSWLVQRNMDLKFNIKSSSSSPDSRAVTCGMASLSAEKVTLDQRDYEKYSVSCQEDVTCPTAEETLPIELALEARQQNKYENYSTSFFIRDIIKPDPPKNLQMKPLKNSQVEVSWEYPDSWSTPHSYFSLKFFVRIQRKKEKMKETEEGCNQKGAFLVEKTSTEVQCKGGNVCVQAQDRYYNSSCSKWACVPCRVRS
# Key:
# CD11c+ DCs = test: Flow cytometric analysis of DC surface and maturation markers (CD86, HLA-DR, CD83, CCR7); assay type: cell-based, human; settings: FIG. 3; for CD83 and CCR7 expression (maturation markers) / CD86 expression, geometric mean: single-cultured iDCs; for CD83 and CCR7 expression (maturation markers): 16 hours co-stimulation, TNF-α 20 ng/ml; for CD86 expression, geometric mean: 16 hours, TRAIL 300 ng/ml and/or PGE2 0.1 μM, untreated iDCs: 647
# Experimental: Human PBMCs were separated from peripheral blood of a healthy donor and the aforementioned glioblastoma patient using Ficoll-Hypaque density centrifugation. PBMC were resuspended in X-Vivo 15 serum-free medium (obtained from Cambrex; Santa Rosa, Calif.) and allowed to adhere to 24-well culture plate at 37° C. The non-adherent cells were removed after 2 hours. CD4+ and CD8+ cells were isolated from these non-adherent cells with MiniMACS cell separation unit (obtained from Milenyi Biotec, Auburn, Calif.) and microbeads conjugated mouse monoclonal anti-human CD4 and CD8 antibody (obtained from Milenyi Biotec). CD4+ and CD8+ cells were used for mixed lymphocyte reaction (MLR) described later. The adherent cells were subsequently cultured in X-Vivo 15 serum-free medium. 20 ng/ml GM-CSF (obtained from BioSource International) and 10 ng/ml IL-4 (obtained from BioSource International) were added to the cultures on days 0, 2, and 4. After 7-day culture, the floating cells were transferred to fresh plates with fresh X-Vivo 15 medium as immature DCs (iDCs). Several iDCs were cultured with 300 ng/ml TRAIL and/or 0.1 μM PGE2 (obtained from Sigma) and/or 20 ng/ml TNF-α for 16 hours (TRAIL-DCs, PGE2-DCs, TRAIL/PGE2-DCs, TRAIL/TNF-α-DCs, TRAIL/TNF-α/PGE2-DCs).
# (§1) Glioma cells were plated to 6-well culture plate at density of 1×10^6 cells/well/2 ml with fresh X-Vivo 15 medium. Several glioma cells were pre-treated with the COX-2 inhibitor NS-398 for 8 hours. The NS-398 treated glioma cells were cultured with TNF-α, TRAIL, and NS-398. The other cells were cultured with TNF-α and TRAIL. After 24 hours culture with these agents, iDCs were put into the wells at the density of 3×10^5 cells/well, and were co-cultured with glioma cells for 16 hours. Several iDCs were cultured with TNF-α/TRAIL or TNF-α/TRAIL/NS-398 without tumor cells. Human glioma cell lines (U-87MG and LN-18) and stable transfectants (LN-18-COX-2 and LN-18-EP) were co-cultured with healthy donor iDCs, and MG-377 were co-cultured with autologous iDCs.
# Monoclonal mouse anti-human antibodies of PE-conjugated CD83, CD86, HLA-DR (obtained from Phamingen), FITC-conjugated CD11c (obtained from BioSource International), and unconjugated CCR7 (R&D Systems; Minneapolis, Minn.) were used for cell surface analysis of DCs. PE-conjugated F(ab′)2 goat anti-mouse immunoglobulins (obtained from DAKO Cytomation; Carpinteria, Calif.) was used for secondary antibody. Mouse IgG1 and IgG2a (obtained from Phamingen) were used for isotype control. DCs were stained with anti-CD86, HLA-DR, CD83, and CCR7 antibodies before staining with anti-CD11c antibody, and CD11c+DCs were isolated with MiniMACS cell separation unit and microbeads-conjugated anti-FITC antibody (obtained from Milenyi Biotec).
# DCs were stained with anti-CD86, HLA-DR, CD83, CCR7, and CD11c antibody. CD11c+ DCs were isolated with cell separation unit and microbease-conjugated anti-FITC antibody.
# [1] = test system: COX-2 protein in human glioma cells (U-87MG, LN-18, MG-377); test: Western blot of COX-2 protein expression in human glioma cells; assay type: cell-based; settings: glioma cells treated with TRAIL and TNF-α plus COX-2 inhibitor (NS-398 10 μM); FIG. 1A
# Experimental: Samples were extracted with buffer containing 1% Triton X-100, 150 mM NaCl, 50 mM Tris (hydroxymethyl aminomethane) (pH 7.5) and 1 mM phenylmethylsulfonyl fluoride (PMSF). The cell debris was removed by centrifugation at 14,000 g for 20 minutes and the supernatant was subjected to SDS polyacrylamide gel electrophoresis (SDS-PAGE) and loaded on a 7.5% polyacrylamide gel (obtained from Bio-Rad; Hercules, Calif.). Electrophoretic transfer to nitrocellulose membranes (obtained from Amersham Biosciences; Piscataway, N.J.) was followed by immunoblotting with a mouse IgG1 anti-COX-2 antibody (obtained from Phamingen) or a mouse IgG1 anti-beta-tublin (obtained from Sigma). This was followed by hybridization with a peroxidase-linked anti-mouse IgG antibody (obtained from Amersham Bioscience). The signal was detected by chemiluminescence using ECL detection system (obtained from Amersham Bioscience) and Hyperfilm ECL (obtained from Amersham Bioscience).
# Expression of COX-2 protein in human glioma cells was examined by Western blot (FIG. 1A).
# [2] = test system: PGE2 in the supernatants of glioma cell cultures; test: PGE2 ELISA in supernatants of glioma cell cultures; assay type: cell-based, human; settings: for PGE2 in the culture supernatants (ELISA): FIG. 1B
# Experimental: Tumor cells, including U-87MG human glioma cell line (obtained from American Type Culture Collection; Rockville, Md.), LN-18 cell line (obtained from Dr. Erwin Van Meier, Emory University; Atlanta, Ga.), and primary cultured human glioma MG-377 (obtained from surgical specimen of a glioblastoma patient at neurosurgical institute, Cedars-Sinai Medical Center; Los Angeles, Calif.), were maintained at 37° C. and 5% CO2 in Dulbecco's Modified Eagles Medium (available from Sigma; St. Louis, Mo.; hereinafter “DMEM”) supplemented with 10% heat-inactivated fetal bovine serum (available from Sigma; hereinafter “[…]”), 2 mM […], 10 mM HEPES (available from Sigma), 100 U/ml penicillin (available from Sigma), 100 μg/ml streptomycin (available from Sigma). 100% di-methyl sulfonyl oxygen (available from Sigma; hereinafter “DMSO”) dissolved NS-398 (selective COX-2 inhibitor; obtained from Cayman Chemical) was used at concentrations of 10 μM. Recombinant human TNF-α (obtained from BioSource International; Camarillo, Calif.) was used at a concentration of 20 ng/ml and TRAIL (obtained from PeproTech Inc.; Rocky Hill, N.J.) was used at a concentration of 300 ng/ml.
# as §1, with “iDCs. […]” for “iDCs.”
# PGE2 in the culture supernatants was measured by ELISA (FIG. 1B).
# [3] = test system: glioma cells (U-87MG, LN-18, MG-377); iDCs; assay type: cell-based; settings: NS-398 treatment; data not shown
# isolated CD11c+ DCs = test: IL-10 and IL-12p70 ELISA in supernatants of DC cultures; assay type: cell-based, human; settings: FIG. 4
# Experimental: as §1
# PGE2 ELISA kit (obtained from Cyman Chemical; Ann Arbor, Mich.) was used according to the manufacture's protocol for measurement in the supernatants of glioma cell cultures. IL-10 and IL-12 p70 ELISA kits (obtained from Phamingen) were used according to the manufacture's protocols for measurement in the supernatants of cultures of tumor cells or isolated CD11c+ DCs. CD40-CD40L interaction is a main trigger of IL-12 production by DCs (Cella, M. et al., “Ligation of CD40 on dendritic cells triggers production of high levels of interleukin-12 and enhances T cell stimulatory capacity: T-T help via APC activation,” J. Exp. Med., Vol. 184, pp. 747-752 (1996)). Based on this evidence, cells were co-cultured with NIH-CD40L cells (obtained from Dr. Gang Zeng, National Cancer Institute, N11, MD; the ratio of NIH-CD40L:DCs=1:1) for 16 hours, and the supernatants of co-cultures were used as the samples. The lower detection limit of each kit was 7.8 pg/ml. All samples and standards were run in duplicate.
# IL-10 and IL-12p70 in the supernatants of cultures were measured by ELISA, and the results were statistically compared with NS-398(−) single-cultured DCs (FIG. 4).
# CD4+ T cells = test: Mixed lymphocyte reaction and IFN-γ/IL-10 ELISPOT (Th cell polarization); assay type: cell-based, human
# [4] = test system: COX-2 overexpressing glioma cells; settings: supplementing with recombinant IL-12, in the absence of COX-2 inhibitor; cited from earlier work
# [5] = DCs co-cultured with NS-398 treated glioma
# [6] = single-cultured DCs, compared with NS-398(−) single-cultured DCs
molecule,measurement,setting,value
TNF-α,CD83 and CCR7 expression (maturation markers),CD11c+ DCs,induced both CD83 and CCR7 expressions
CS(=O)(=O)Nc1ccc([N+](=O)[O-])cc1OC1CCCCC1 [NS-398],COX-2 expression (Western blot),[1],did not extinguish the COX-2 expression
same,PGE2 in the culture supernatants (ELISA),"[2]; LN-18, each group",no significant difference
same,PGE2 produced by the COX-2 transfectant,[2]; LN-18-COX-2 stable transfectant,suppressed the PGE2
same,PGE2 in the culture supernatants (ELISA),"[2]; U-87MG and MG-377, addition of NS-398 10 μM to TRAIL/TNF-α cultures, p<0.01",significantly reduced
same,death ratio in each glioma,[3],did not cause a change of the death ratio
same,"geometric means of the expressing markers (CD86, HLA-DR, CD83, CCR7)","CD11c+ DCs; DCs co-cultured with glioma cells, with or without NS-398 treatment",no statistical difference
same,IL-10 (ELISA),isolated CD11c+ DCs; [5],downregulation of IL-10
same,IL-12 (ELISA),isolated CD11c+ DCs; [5],augmentation of IL-12
same,IL-10 production (ELISA),isolated CD11c+ DCs; [6],did not effect to change
same,IL-12p70 production (ELISA),isolated CD11c+ DCs; [6],did not effect to change
same,DC-mediated Th cell polarization,"CD4+ T cells; DCs co-cultured with COX-2-inhibited glioma cells, FIG. 5A-F",bias toward Th1
same,Th cell polarization by tumor-infiltrating DCs,CD4+ T cells; LN-18-COX-2 stable transfectant with COX-2 inhibitor,polarizing the Th cells toward Th1
same,IL-10 expression (ELISPOT),"CD4+ T cells; co-culture of primary glioma (MG-377) with autologous DCs, FIG. 5E",decrease in IL-10
same,interferon-gamma expression (ELISPOT),"CD4+ T cells; co-culture of primary glioma (MG-377) with autologous DCs, FIG. 5F",decrease in interferon-gamma
same,IL-10 expression (ELISPOT),"CD4+ T cells; co-cultured DCs and glioma, FIG. 5A, 5B",decrease in IL-10 expression
same,interferon-gamma expression (ELISPOT),"CD4+ T cells; co-cultured DCs and glioma, FIG. 5C, 5D",increase in interferon-gamma expression
"CCCCC[C@H](O)/C=C/[C@H]1[C@H](O)CC(=O)[C@@H]1C/C=C\CCCC(=O)O [PGE2, ProstaglandinE2]",CD83 and CCR7 expression (maturation markers),CD11c+ DCs,did not induce CD83 or CCR7 expression
same,"CD86 expression, geometric mean",CD11c+ DCs,2779
same,Th cell polarization by tumor-infiltrating DCs,CD4+ T cells; soluble PGE2 added into culture supernatant of LN-18-EP,same effect on Th2 polarization as LN-18-COX-2
B1,CD83 and CCR7 expression (maturation markers),CD11c+ DCs,did not induce CD83 or CCR7 expression
same,"CD86 expression, geometric mean",CD11c+ DCs,1086
B2,therapeutic effect of DC-based glioma immunotherapy,[4],potent therapeutic effect
